Where two headings read alike, the source gives them in different places.
Experiments:
[1] = Determination of the lethal effect (acute toxicity); set-up: species or system female albino mice NMRI; conditions: mouse, in vivo; oral; mice; observation time 7 days
Experimental: (§1) All the experiments are carried out on female albino mice NMRI of 20 to 30 g body weight. 5 to 20 animals are employed per dose and the dose/response relationship are determined.
The mice were given food (Altromin®) and water ad libitum. The substances to be tested were administered orally as solutions of varying concentration in a volume of from 10 to 20 ml/kg using a stomach tube; 5 animals per dose were kept in Macrolon cages, type II. The observation time was 7 days. […] Literature: Litchfield and Wilkoxon ([…]) J. Pharm. Exp. Therap. 96/2, 99.

thermal pain = test: Tail flick test (analgesia); assay type: in vivo, female albino mice NMRI; conditions: Mus musculus; oral; dose which prolongs the reaction time by 50%; mice; read-out: Analgesic action, tail flick test ED50
Experimental: as §1
(a) Tail flick test: Albino mice are exposed to thermal pain, from a focused heat ray, at the tail root, and the time which elapses before the tail is drawn away is recorded. This time is usually in the range of from 4 to 5 seconds. The substances tested cause a delayed reaction to the thermal pain, that is a reduced thermal pain reaction. The dose which prolongs the reaction time by 50% is determined. Literature: D'Amour, F. E., and Smith, D. L., (1941) J. Pharmacol. Exp. Ther. 72, 74.

acetic acid writhing = test: Acetic acid writhing test (analgesia); assay type: in vivo, female albino mice NMRI; conditions: Mus musculus, read-out: Analgesic action, acetic acid writhing test ED50
Experimental: as §1
(b) Writhing test (acetic acid writhing): intraperitoneal injection of 0.2 ml/20 g of body weight of mouse of a 0.75% strength acetic acid solution induces in albino mice a typical syndrome proceeding over the body with dorsal flection, called "writhing". These "writhes" (occurring in the course of the first half hour after administration) are counted over a period of 5 to 20 minutes after administration of acetic acid. The substances tested (administered 30 minutes before the acetic acid injection) cause a reduction in the number of writhing syndromes. The dose which reduces the number thereof by 50%, relative to the daily control, is determined. Literature: Koster, Anderson, de Beer (1959) Fed.Proc. 18, 412.

Reserpine ptosis = test: Antiptotic action (Reserpine antagonism); assay type: in vivo, female albino mice NMRI; conditions: Mus musculus
Experimental: as §1
Antiptotic action (Reserpine antagonism)
Subcutaneous administration of 2 mg/kg of reserpine to albino mice causes ptosis in the course of several hours [Reserpine Ptosis, Domenjoz and Theobald (1959), Arch, Int. Pharmacodyn. 120,450]. The test substances are administered to the animals orally in various doses 3 hours before the administration of reserpine. The intensity of ptosis is graded by a rating scale 3-2-1-0 (complete, moderate, slight, no ptosis) in the 2nd, 3rd and 4th hour after administration of the reserpine (that is 5, 6 and 7 hours after administration of the substance). The substances tested antagonize the ptosis according to the dose. The ED50 of the antagonistic action is evaluated in comparison to the daily reserpine control.

[2] = po, 5 h, read-out: Antiptotic action, Reserpine antagonism ED50, 5 hours after administration
[3] = po, 6 h, read-out: Antiptotic action, Reserpine antagonism ED50, 6 hours after administration
[4] = po, 7 h, read-out: Antiptotic action, Reserpine antagonism ED50, 7 hours after administration
[5] = oral, 30 minutes before acetic acid, dose which reduces writhes by 50%, mice
[6] = read-out: Antiptotic action, Reserpine antagonism ED50, oral, 5 hours after administration, reserpine 2 mg/kg s.c., mice
[7] = oral, 6 hours after administration, reserpine 2 mg/kg s.c., mice, read-out: Antiptotic action, Reserpine antagonism ED50, 6 hours after administration
[8] = oral, 7 hours after administration, reserpine 2 mg/kg s.c., mice, read-out: Antiptotic action, Reserpine antagonism ED50, 7 hours after administration

SMILES	LD50 at 168 h [1] [mg/kg]	ED50 (thermal pain) [mg/kg]	ED50 (acetic acid writhing; po) [mg/kg]	ED50 (Reserpine ptosis; [2]) [mg/kg]	ED50 (Reserpine ptosis; [3]) [mg/kg]	ED50 (Reserpine ptosis; [4]) [mg/kg]	ED50 (acetic acid writhing; [5]) [mg/kg]	ED50 (Reserpine ptosis; [6]) [mg/kg]	ED50 (Reserpine ptosis; [7]) [mg/kg]	ED50 (Reserpine ptosis; [8]) [mg/kg]
CN1CCC(Oc2ccc(N)cc2)(c2ccccc2)CC1 [compound 5]	160	12	7	0.7	3	10				
CN1CCC(Cc2ccccc2)(Oc2ccc([N+](=O)[O-])cc2)CC1 [compound 6]	290	> 75					35			
CN1CCC(Cc2ccccc2)(Oc2ccc(N)cc2)CC1 [compound 4]	180	2					27	9.5	24	50
CN1CCC(Oc2ccc([N+](=O)[O-])cc2)(c2ccccc2)CC1 [compound 3]	140	50		0.7	2	5.8				
CC(C)(C)N1CCC(Oc2ccc([N+](=O)[O-])cc2)(c2ccccc2)CC1 [Serial No. 9, 1-(tert.-Butyl)-4-(4-nitrophenoxy)-4-phenylpiperidine]			10							
CN(C)CCCN1c2ccccc2CCc2ccccc21 [Serial No. 1, Imipramine, reference compound]		> 50					> 100	18	50	100
CN1CCC(Oc2ccccc2)(c2ccccc2)CC1 [compound 2]	220	35		2.1	2.7	4				
CC(=O)Nc1ccc(OC2(c3ccccc3)CCN(C)CC2)cc1 [compound 10]	100 to 200	12.5	10	< 10	< 10	< 10				
CN1CCC(Cc2ccccc2)(Oc2ccccc2)CC1 [compound 7]	300	55					27			
c1ccc(OC2(c3ccccc3)CCNCC2)cc1 [compound 8]	> 200	25					50	~25	> 50	> 50
